Data on three compounds can be found in patent US20050020638A1, “Method of stabilizing lansoprazole” (priority 2003, published 2005).

Read-outs that look alike come from different tables or passages of the source.

The conditions of data set [1]: cited from earlier work.
A short description of data set [2]: Stability of stabilized vs. non-stabilized lansoprazole on storage (HPLC impurities and color). In kind it is physicochemical. The following applies: 40 °C, 75% humidity. As to the method: Chromatographic purity method of lansoprazole is detailed in the monograph in USP Forum Vol. 26 (5) [September-October 2000]. HPLC condition: Column C18 • Mobile phase: Gradient of triethylamine in water with acetonitrile • Flow: 0.8 ml/min • Detection: 285 nm Karl Fisher method for water determination is the USP method, 921. Ia, with the solvent: pyridine and ethylene glycol 9:1 as detailed in USP Forum Vol. 26 (5) [September-October 2000].

[3] abbreviates: 1 month, lansoprazole of Example 2.
[4] abbreviates: 3 months, 'solvent free' lansoprazole of Example 3.

As for `Cc1c(OCC(F)(F)F)ccnc1C[S+]([O-])c1nc2ccccc2[nH]1` (stereo not shown) [lansoprazole, (2-[[[3-methyl-4-(2,2,2-trifluoro-ethoxy)-2-pyridinyl]methyl]sulfinyl]-1H-benzimidazole)], the Color after storage result is reported as “pale brown” in data set [1] (4 months at 40 °C and 75% room humidity); “pale yellowish brown” in data set [1] (4 months at 40 °C, absence of humidity).
On to `Cc1c(OCC(F)(F)F)ccnc1C[S+]([O-])c1nc2ccccc2[nH]1` (stereo not shown) [Lansoprazole stabilized with ammonia, 2-[[3-methyl-4-(2,2,2-trifluoroethoxy)-2-pyridyl]methyl]sulfinyl-1H benzimidazole], for which, in data set [2] (setting [3]), the Color after storage entry was “white”, the “LNP-SO2 (sulfone derivative) after storage” value (from here on “LNP-SO2 (sulfone derivative)”) stood at 0.03% and the Total impurities after storage stood at 0.05%. In data set [2] (setting [4]), the Color after storage entry is “white”, the “LNP-SO2 (sulfone derivative)” value worked out at 0.02%, the “LNPS (sulfide derivative) after storage” value is reported as 0.03% and the “Total impurities after storage” value came out at 0.08%.
On to `Cc1c(OCC(F)(F)F)ccnc1C[S+]([O-])c1nc2ccccc2[nH]1` (stereo not shown) [Lansoprazole not stabilized with ammonia, 2-[[3-methyl-4-(2,2,2-trifluoroethoxy)-2-pyridyl]methyl]sulfinyl-1H benzimidazole], for which, in data set [2] (setting [3]), the “LNP-SO2 (sulfone derivative)” value is listed as 0.04%, the “LNPS (sulfide derivative) after storage” value was 0.03% and the Total impurities after storage was 0.15%. For the same compound, in data set [2] (setting [4]), the Color after storage entry is “Brownish”, the “LNP-SO2 (sulfone derivative)” value is reported as 0.04%, the “LNPS (sulfide derivative) after storage” value turned out to be 0.06% and the “Total impurities after storage” value was 0.31%.
